According to PubChem BioAssay AID330 (DTP/NCI, 2004):
Values joined by “and” are separate entries in the source; they are usually repeats but may differ in a detail not shown here. Equal entries are not always repeated. Inconclusive results and toxic doses are left out. The calls were made as follows: active = survival T/C of 150% or more; inactive = T/C below 125% in these data.

Tested on: P388 leukemia ip, CD2F1 mice, survival T/C
Assay: NCI In Vivo Anticancer Drug Screen. Data for tumor model P388 Leukemia (intraperitoneal) in CD2F1 (CDF1) mice
Details: endpoint: median survival time, higher = longer survival
Method in brief: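 Mice carrying the transplanted tumor received test compound or vehicle. Survival was recorded in each group, and the value is the treated-group measurement divided by that of the vehicle-treated control group.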

[1] = dose: 60.0 mg/kg/injection, schedule: Q01DX005 (ip), vehicle: saline with Tween-80
[2] = dose: 120.0 mg/kg/injection, schedule: Q01DX005 (ip), vehicle: saline with Tween-80
[3] = dose: 240.0 mg/kg/injection, schedule: Q01DX005 (ip), vehicle: saline with Tween-80
[4] = dose: 60.0 mg/kg/injection, schedule: Q01DX005 (ip), vehicle: Klucel (hydroxypropylcellulose) (HPC)
[5] = dose: 120.0 mg/kg/injection, schedule: Q01DX005 (ip), vehicle: Klucel (hydroxypropylcellulose) (HPC)
[6] = dose: 50.0 mg/kg/injection, schedule: Q01DX005 (ip), vehicle: Klucel (hydroxypropylcellulose) (HPC)
[7] = dose: 100.0 mg/kg/injection, schedule: Q01DX005 (ip), vehicle: Klucel (hydroxypropylcellulose) (HPC)
[8] = dose: 200.0 mg/kg/injection, schedule: Q01DX005 (ip), vehicle: Klucel (hydroxypropylcellulose) (HPC)
[9] = dose: 100.0 mg/kg/injection, schedule: Q04DX002 (ip), vehicle: saline with Tween-80
[10] = dose: 200.0 mg/kg/injection, schedule: Q04DX002 (ip), vehicle: saline with Tween-80
[11] = dose: 400.0 mg/kg/injection, schedule: Q04DX002 (ip), vehicle: saline with Tween-80
[12] = dose: 50.0 mg/kg/injection, schedule: Q01DX009 (ip), vehicle: saline with Tween-80
[13] = dose: 100.0 mg/kg/injection, schedule: Q01DX009 (ip), vehicle: saline with Tween-80
[14] = dose: 200.0 mg/kg/injection, schedule: Q01DX009 (ip), vehicle: saline with Tween-80
[15] = dose: 50.0 mg/kg/injection, schedule: Q04DX003 (ip), vehicle: Klucel (hydroxypropylcellulose) (HPC)
[16] = dose: 100.0 mg/kg/injection, schedule: Q04DX003 (ip), vehicle: Klucel (hydroxypropylcellulose) (HPC)
[17] = dose: 25.0 mg/kg/injection, schedule: Q01DX009 (ip), vehicle: distilled water + Tween-80
[18] = dose: 50.0 mg/kg/injection, schedule: Q01DX009 (ip), vehicle: distilled water + Tween-80
[19] = dose: 100.0 mg/kg/injection, schedule: Q01DX009 (ip), vehicle: distilled water + Tween-80
[20] = dose: 200.0 mg/kg/injection, schedule: Q01DX009 (ip), vehicle: distilled water + Tween-80
[21] = dose: 25.0 mg/kg/injection, schedule: Q01DX009 (ip), vehicle: saline
[22] = dose: 50.0 mg/kg/injection, schedule: Q01DX009 (ip), vehicle: saline
[23] = dose: 100.0 mg/kg/injection, schedule: Q01DX009 (ip), vehicle: saline

Measured: T/C

COc1cc(C2C(C)=C(C)Oc3cc4c(cc32)OCO4)cc(OC)c1OC (stereo unspecified)
inactive: [1] 97 % of control | [2] 91 % of control | [3] 88 % of control

CN(CC#N)Cc1ccccc1
inactive: dose: 7.5 mg/kg/injection, schedule: Q01DX005 (ip), vehicle: saline with Tween-80 95 % of control | dose: 15.0 mg/kg/injection, schedule: Q01DX005 (ip), vehicle: saline with Tween-80 96 % of control | dose: 30.0 mg/kg/injection, schedule: Q01DX005 (ip), vehicle: saline with Tween-80 97 % of control | [1] 103 % of control

Cc1c(OCC(=O)N/N=C/c2ccc(N(CCCl)CCCl)cc2)ccc2c(=O)c3ccccc3oc12
inactive: [4] 96 % of control | [5] 98 % of control

COC(=O)c1c(C(=O)OC)c(-c2ccccc2)n(CCn2c(-c3ccccc3)c(C(=O)OC)c(C(=O)OC)c2-c2ccccc2)c1-c1ccccc1
inactive: [6] 96 % of control | [7] 93 % of control | [8] 95 % of control

Cc1cc(C)cc([C@H](C)N=Cc2cc(Br)ccc2O)c1
inactive: [9] 100 % of control | [10] 100 % of control | [11] 108 % of control

FC(F)(F)c1ccc(-c2nn[nH]n2)cc1
inactive: [4] 107 % of control | [5] 101 % of control

COC1CC(OC2CCC3(C)C(CCC45CCC(C6=CC(=O)OC6)C(C)(CCC43)C5=O)C2)OC(C)C1O (stereo unspecified)
inactive: dose: 1.56 mg/kg/injection, schedule: Q01DX005 (ip), vehicle: Klucel (hydroxypropylcellulose) (HPC) 90 % of control | dose: 3.12 mg/kg/injection, schedule: Q01DX005 (ip), vehicle: Klucel (hydroxypropylcellulose) (HPC) 97 % of control | dose: 6.25 mg/kg/injection, schedule: Q01DX005 (ip), vehicle: Klucel (hydroxypropylcellulose) (HPC) 100 % of control | dose: 12.5 mg/kg/injection, schedule: Q01DX005 (ip), vehicle: Klucel (hydroxypropylcellulose) (HPC) 88 % of control and 91 % of control

O=C1c2ccccc2C(=O)c2c1cccc2N1C(=O)C=CC1=O
inactive: [1] 101 % of control | [2] 95 % of control | [3] 93 % of control

COC(OC)/C(C)=N/NC1=Nc2ccc(Cl)cc2C(c2ccccc2Cl)=NC1
inactive: [12] 98 % of control | [13] 95 % of control | [14] 101 % of control

CCCCCCCCCCC1(CCCC)C(=O)NC(=O)NC1=O
inactive: dose: 25.0 mg/kg/injection, schedule: Q01DX009 (ip), vehicle: saline with Tween-80 110 % of control | [12] 108 % of control | [13] 110 % of control

CC(C)c1c2ccccc2nn1-c1ccccc1
inactive: dose: 100.0 mg/kg/injection, schedule: Q04DX003 (ip), vehicle: saline with Tween-80 97 % of control | dose: 200.0 mg/kg/injection, schedule: Q04DX003 (ip), vehicle: saline with Tween-80 89 % of control | dose: 400.0 mg/kg/injection, schedule: Q04DX003 (ip), vehicle: saline with Tween-80 91 % of control

CC1=NN(C(C)(C)C)[Si]2(C(C)(C)C)C1[Si]1(C(C)(C)C)C2C(C)=NN1C(C)(C)C (stereo unspecified)
inactive: dose: 25.0 mg/kg/injection, schedule: Q01DX005 (ip), vehicle: Klucel (hydroxypropylcellulose) (HPC) 92 % of control | [6] 86 % of control | [7] 90 % of control | [8] 90 % of control

Brc1cccc(C(Nc2nncs2)Nc2nncs2)c1
inactive: dose: 50.0 mg/kg/injection, schedule: Q04DX002 (ip), vehicle: saline with Tween-80 91 % of control | [9] 92 % of control and 95 % of control | [10] 100 % of control and 111 % of control | [11] 124 % of control

CC(=O)Oc1c2ccsc2cc2sccc12
inactive: dose: 12.5 mg/kg/injection, schedule: Q04DX003 (ip), vehicle: Klucel (hydroxypropylcellulose) (HPC) 95 % of control | dose: 25.0 mg/kg/injection, schedule: Q04DX003 (ip), vehicle: Klucel (hydroxypropylcellulose) (HPC) 94 % of control | [15] 94 % of control | [16] 100 % of control

N#CC1C(=O)NC(=S)NC1CCc1ccccc1 (stereo unspecified)
inactive: dose: 50.0 mg/kg/injection, schedule: Q01DX009 (ip), vehicle: Klucel (hydroxypropylcellulose) (HPC) 105 % of control | dose: 100.0 mg/kg/injection, schedule: Q01DX009 (ip), vehicle: Klucel (hydroxypropylcellulose) (HPC) 99 % of control | dose: 200.0 mg/kg/injection, schedule: Q01DX009 (ip), vehicle: Klucel (hydroxypropylcellulose) (HPC) 100 % of control

CCOC(=O)c1ccc(NC(=S)Nc2nccs2)cc1
inactive: [17] 99 % of control | [18] 101 % of control | [19] 95 % of control | [20] 92 % of control | dose: 400.0 mg/kg/injection, schedule: Q01DX009 (ip), vehicle: distilled water + Tween-80 92 % of control

CN(C)S(=O)(=O)N1CCOCC1
inactive: [15] 95 % of control | [16] 101 % of control | dose: 200.0 mg/kg/injection, schedule: Q04DX003 (ip), vehicle: Klucel (hydroxypropylcellulose) (HPC) 93 % of control | dose: 400.0 mg/kg/injection, schedule: Q04DX003 (ip), vehicle: Klucel (hydroxypropylcellulose) (HPC) 110 % of control

COc1ccc(CCn2cnn3c(=O)c4ccccc4nc3c2=O)cc1OC
inactive: [1] 99 % of control | [2] 92 % of control

NC(CCP(=O)(O)O)C(=O)O (stereo unspecified)
inactive: dose: 50.0 mg/kg/injection, schedule: Q01DX005 (ip), vehicle: saline 107 % of control | dose: 100.0 mg/kg/injection, schedule: Q01DX005 (ip), vehicle: saline 97 % of control | [9] 100 % of control | dose: 200.0 mg/kg/injection, schedule: Q01DX005 (ip), vehicle: saline 92 % of control | [10] 87 % of control | [11] 89 % of control

O=C1CN(c2ccccc2)CC(=O)N2CCCN12
inactive: dose: 12.5 mg/kg/injection, schedule: Q01DX005 (ip), vehicle: saline with Tween-80 100 % of control | dose: 25.0 mg/kg/injection, schedule: Q01DX005 (ip), vehicle: saline with Tween-80 96 % of control | dose: 50.0 mg/kg/injection, schedule: Q01DX005 (ip), vehicle: saline with Tween-80 100 % of control

O=C(Nc1ccc([N+](=O)[O-])cc1)Nc1nncs1
inactive: dose: 12.5 mg/kg/injection, schedule: Q01DX009 (ip), vehicle: distilled water + Tween-80 100 % of control | [17] 107 % of control and 92 % of control | [18] 115 % of control and 119 % of control | [19] 119 % of control and 124 % of control | [20] 110 % of control

COc1ccc(-n2c(=O)c(N=Nc3ccc(C)cc3)c(O)n(-c3ccccc3Cl)c2=S)cc1
inactive: dose: 50.0 mg/kg/injection, schedule: Q01DX001 (ip), vehicle: Klucel (hydroxypropylcellulose) (HPC) 96 % of control | dose: 100.0 mg/kg/injection, schedule: Q01DX001 (ip), vehicle: Klucel (hydroxypropylcellulose) (HPC) 99 % of control | dose: 200.0 mg/kg/injection, schedule: Q01DX001 (ip), vehicle: Klucel (hydroxypropylcellulose) (HPC) 96 % of control

O=c1[nH]cc(CCCc2ccccc2)c(=O)[nH]1
inactive: [4] 102 % of control | [5] 95 % of control | dose: 240.0 mg/kg/injection, schedule: Q01DX005 (ip), vehicle: Klucel (hydroxypropylcellulose) (HPC) 95 % of control

N=C(N)SCCCN
inactive: [21] 95 % of control | [22] 103 % of control | [23] 112 % of control | dose: 200.0 mg/kg/injection, schedule: Q01DX009 (ip), vehicle: saline 112 % of control

Cc1ccc(C)c(NC(=O)Oc2cc(C)c(Cl)c(C)c2)c1
inactive: [12] 101 % of control | [13] 105 % of control | [14] 98 % of control

O=C(O)C(F)(F)F.O=C(O)C(F)(F)F.O=C(O)C(F)(F)F.O=C(O)C(F)(F)F.[Rh].[Rh]
inactive: [21] 86 % of control | [22] 110 % of control | dose: 50.0 mg/kg/injection, schedule: Q01DX009 (ip), vehicle: suspension in saline 104 % of control | [23] 122 % of control | dose: 100.0 mg/kg/injection, schedule: Q01DX009 (ip), vehicle: suspension in saline 123 % of control
